Consider two compounds from article PMC8850458, “The AUTOTAC chemical biology platform for targeted protein degradation via the autophagy-lysosome system” (Nature Communications, 2022).

The target of one test is T1, wild-type desmin (Homo sapiens, UniProt P17661).
T1 construct: expressed in transfected cells; host or cells: HeLa, transient
Kind of test: WB degradation of wild-type desmin in HeLa cells. Type of test: cell-based. Conditions: exogenously expressed. As to the method: (§1) Adherent cells were washed with phosphate-buffered saline (PBS) and cell pellets were lysed in SDS-based sample buffer (277.8 mM Tris-HCI, pH 6.8, 4.4% LDS, 44.4% (v/v) glycerol) containing beta-mercaptoethanol. Alternatively, cell pellets or protein supernatants were lysed in 5X Laemmli sample buffer. Whole-cell lysates were separated using SDS-PAGE, and transferred onto polyvinyllidene difluoride membranes at 100 V for 2 h at 4 °C. The membrane was incubated with a blocking solution consisting 4% skim milk in PBS solution for 30 min at room temperature and incubated with primary antibodies overnight, followed by incubation with host-specific HRP-conjugated secondary antibodies (1:10000 dilution). For signal detection, the membrane was developed with a mixture of ECL solution (Thermo Fisher Scientific) using X-ray films. Densitometry of developed bands was measured and analyzed with ImageJ (NIH, Bethesda).
(§2) Supplementary Fig. 5. AUTOTACs selectively target pathological aggregation-prone proteins for autophagic degradation. (a) WB in HEK293T cells treated with PBA-1105 (1 μM) and MG132 (1 μM, 24 h) at the indicated time points. (b) ICC of HeLa cells treated with the indicated compounds (1 μM, 24 h). Scale bar, 10 μm. (c) WB in HEK293T cells treated with PBA-1105 (500 nM, 24 h) and MG132 (1 μM, 24 h) under siRNA-mediated knockdown of p62 or ATG7 (20 nM, 48 h). (d) ICC in HeLa cells transiently expressing WIPI2-GFP and treated with Anle138b-F105 (1 μM, 24 h). Scale bar, 10 μm. (e) ICC in HeLa cells treated with […]
(§3) nM, 24 h). (g, h) WB in HeLa cells transiently expressing wild type or mutant (L385P) desmin-flag with LacZ-myc and treated with PBA-1105, PBA-1105b or Anle138b-F105 at the […]

In the next test the target is T2, mutant desminL385P (Homo sapiens, UniProt P17661, L385P).
T2 construct: expressed in transfected cells; host or cells: HeLa, transient
Kind of test: WB degradation of mutant desmin in HeLa cells. The class given is cell-based. Conditions: exogenously expressed. As to the method:
as §1, §2, §3

The target of a further test is tauP301L (Homo sapiens, UniProt P10636, P618L). Kind of test: WB degradation of tauP301L in SH-SY5Y-tauP301L cells. Type of test: cell-based. Conditions: SH-SY5Y-tauP301L cells. The gist of the method: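 Lysates in SDS/LDS or Laemmli sample buffer were separated by SDS-PAGE and blotted to PVDF. Target protein was detected with primary antibodies, HRP secondary and ECL on X-ray film, and degradation quantified by band densitometry.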

Test [1] has as its system U87-MG glioblastoma cells. Kind of test: Wound healing assay in U87-MG cells. Type of test: cell-based. On the set-up: wound area, single experiment / wound area, Average: unit not given here. Conditions: Fig. S4j. As to the method:
To analyze cell migration in two dimensions, U-87 MG or ACHN cells were plated to a monolayer. Cells were scratched with a sterile 10 μl pipette tip and the debris was removed using medium. Cells were treated with compounds and incubated for different time to monitor cell behavior. Photographs were obtained using a microscope at different time point.

Test [2] deals with p62 and LC3 punctate structures. Kind of test: ICC of p62 and LC3 puncta formation and co-localization in HeLa cells. The class given is cell-based. Conditions: 2.5 μM, 24 h. As to the method: (§4) Cells were cultured on coverslips coated with poly-L-lysine (Sigma) to observe cellular localization of proteins. Using 4% paraformaldehyde in PBS (pH 7.4), the cells were fixed for 15 min at room temperature and washed three times for 5 min with PBS. After fixing, the cells were permeabilized with 0.5% Triton X-100 in PBS solution for 15 min and washed three times with PBS for 5 min. The cells were blocked containing 2% BSA in PBS solution for 1 h at room temperature. Subsequently, the cells were incubated with primary antibody diluted in 2% BSA/PBS solution overnight at 4 °C, followed by washing the cells three times for 10 min with PBS and incubated with Alexa Fluor-conjugated secondary antibody diluted in 2% BSA/PBS for 30 min at room temperature. Using a DAPI-containing mounting medium (Vector Laboratories), the coverslips were mounted on glass slides. Confocal images were taken by laser scanning confocal microscope 510 Meta (Zeiss) and analyzed by Zeiss LSM Image Browser (ver. 4.2.0.121). […] Quantification results are shown as mean ± S.D. or S.E.M. of three independent experiments

A further test concerns the target T3, p62 (Homo sapiens, UniProt Q13501).
T3 construct: expressed in transfected cells; host or cells: HEK293T, transient; whole lysate used
Kind of test: In vitro pulldown assay with biotinylated p62 ligands. Type of test: binding. Conditions: biotinylated ligand, HEK293T extracts. As to the method:
A set of synthetic 12-mer peptides corresponding to the N-terminal sequences of the V-BiP (V[19]-[…]-biotin) and V-RGS4 (V^2-[…]-biotin) was C-terminally biotin-conjugated. Alternatively, biotinylated versions of YOK-1304, YT-8-8, YTK-1105, YOK-2204, and PBA were synthesized. To cross-link the above peptides with resin beads, biotin-conjugated peptides, and small molecule were mixed with high-capacity streptavidin agarose resin (Thermo Fisher Scientific) at a ratio of 0.5 mg of peptide per 1 mL of settled resin and incubated on a rotator at 4 °C overnight. After washing five times with PBS, the peptide/small molecule-bead conjugates were diluted with PBS at a 1:1 ratio. To prepare protein extracts, cells were collected by centrifugation and lysed by freezing and thawing at least 10 times in hypotonic buffer [10 mM KCl, 1.5 mM MgCl2, and 10 mM HEPES (pH 7.9)] with a protease inhibitor mix (Sigma). After centrifugation at 15,000 rpm 4 °C for 15 min, proteins were quantified using a BCA protein assay kit (Thermo Fisher Scientific). Total protein (200 μg) diluted in 300 μL of binding buffer [0.05% Tween-20, 10% glycerol, 0.2 M KCl, and 20 mM HEPES (pH 7.9)] were mixed with 50 μL of peptide/small molecule-bead resin and incubated at 4 °C for 2 h on a rotator. The protein-bound beads were collected by centrifugation at 2400 × g for 3 min and washed five times with binding buffer. The beads were resuspended in 25 μL of SDS sample buffer, heated at 95 °C for 5 min, and subjected to SDS/PAGE and immunoblotting.

Test [3] has as its target T4, methionine aminopeptidase 2 (MetAP2) (Homo sapiens, UniProt P50579).
T4 construct: Targeted autophagic degradation of endogenous oncoproteins by AUTOTAC; endogenous in cells; host or cells: HEK293 / HEK293T, U87-MG
Kind of test: Western blot degradation of MetAP2. The class given is cell-based. Conditions: 293T, 24 h. As to the method:
as §1
Background: In western blotting, separated proteins are transferred to a membrane and probed.

The test system of test [4] is autophagic turnover of p62 and LC3. Kind of test: Autophagic flux assay in HeLa cells with or without HCQ. Conditions: 2.5 μM, 24 h, with or without HCQ 10 µM 24 h. Type of test: cell-based. As to the method:
Fig. 1 Nt-Arg-mimicking p62-ZZ ligands activate p62-dependent selective macroautophagy. a A model illustrating the mode of action of autophagy-targeting ligands. b Chemical structures of autophagy-targeting ligands. c In vitro pulldown assay in HEK293T cells of the 12-mer V-BiP peptide or autophagy-targeting ligands. d In vitro p62 oligomerization assay in HEK293T cells incubated with the p62-ZZ ligands in (b). e ICC of HeLa cells treated with p62-ZZ ligands in (b) (2.5 μM, 24 h). Scale bar, 10 μm. f, g Quantification of (e) for puncta formation and co-localization, respectively (n = 3 biologically independent experiments each counting 50 cells). h A schematic/formulae for autophagy flux index. i Autophagic flux assay in HeLa cells treated with YOK-1304 or YTK-105 (2.5 μM, 24 h) in the presence or absence of HCQ (10 µM, 24 h). Data are presented as mean values ± SD where relevant. P-values (from a two-sided unpaired t test): ***P < 0.000956 (for p62 punctate formation), ***P < 0.000539 (for LC3 punctate formation), ***P < 0.000925 (for p62-LC3 co-localization). Source data are provided with this paper. TEXT PRINTED IN THE PICTURE: (i) YOK 1304: Normalized p62 A.F. index: 2.8; Normalized LC3 II/I A.F. index: 4.2 | (i) YTK 105: Normalized p62 A.F. index: 4.6; Normalized LC3 II/I A.F. index: 11.2
as §1

Test [5] concerns p62-positive and WIPI2-positive punctate structures. Kind of test: ICC of WIPI2-p62 co-localization in HeLa cells. The class given is cell-based. As to the method:
as §4
Supplementary Fig. 2. Characterization of p62-ZZ ligands (a, c, e) 3-D modeling of p62 […]
μM, 6 h). (m) Quantification of l for co-localization (n=3, 50 cells). Scale bar, 10 µm. (n) […]

Setting [6] is: HeLa expressing WIPI2-GFP, 2.5 μM, 6 h.
[7] abbreviates: HeLa, endogenous WIPI2, 2.5 μM, 24 h.

SMILES strings stand for the structures. “And” between values parts separate entries of the source, which are not always exact repeats. Equal values may be shown once.

T4 sequence (P50579 whole entry): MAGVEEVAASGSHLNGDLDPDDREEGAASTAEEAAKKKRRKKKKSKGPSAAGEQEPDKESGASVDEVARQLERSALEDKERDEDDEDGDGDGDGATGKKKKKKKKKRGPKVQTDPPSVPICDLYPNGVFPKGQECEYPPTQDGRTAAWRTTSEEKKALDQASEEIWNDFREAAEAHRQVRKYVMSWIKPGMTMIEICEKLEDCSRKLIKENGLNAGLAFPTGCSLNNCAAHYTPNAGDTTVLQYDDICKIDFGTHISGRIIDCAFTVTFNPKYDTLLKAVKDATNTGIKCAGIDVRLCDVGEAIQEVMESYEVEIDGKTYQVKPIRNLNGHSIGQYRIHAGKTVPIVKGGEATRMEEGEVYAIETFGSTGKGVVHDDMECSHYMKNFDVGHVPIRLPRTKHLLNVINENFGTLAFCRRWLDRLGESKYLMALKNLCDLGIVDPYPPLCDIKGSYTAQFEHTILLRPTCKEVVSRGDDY
T1 sequence (P17661 whole entry): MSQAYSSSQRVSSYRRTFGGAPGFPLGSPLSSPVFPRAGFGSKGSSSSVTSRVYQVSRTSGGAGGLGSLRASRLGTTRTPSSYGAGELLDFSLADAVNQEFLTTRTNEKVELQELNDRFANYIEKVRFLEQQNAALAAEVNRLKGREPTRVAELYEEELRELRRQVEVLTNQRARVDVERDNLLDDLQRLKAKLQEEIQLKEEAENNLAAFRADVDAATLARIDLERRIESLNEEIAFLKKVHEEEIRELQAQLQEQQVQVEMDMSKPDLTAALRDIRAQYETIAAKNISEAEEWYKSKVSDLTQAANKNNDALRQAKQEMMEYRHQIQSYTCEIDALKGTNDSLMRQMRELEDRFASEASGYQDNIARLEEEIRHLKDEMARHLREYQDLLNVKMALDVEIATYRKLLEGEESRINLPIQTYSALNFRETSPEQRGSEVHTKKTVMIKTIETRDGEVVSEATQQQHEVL
T3 sequence (Q13501 whole entry): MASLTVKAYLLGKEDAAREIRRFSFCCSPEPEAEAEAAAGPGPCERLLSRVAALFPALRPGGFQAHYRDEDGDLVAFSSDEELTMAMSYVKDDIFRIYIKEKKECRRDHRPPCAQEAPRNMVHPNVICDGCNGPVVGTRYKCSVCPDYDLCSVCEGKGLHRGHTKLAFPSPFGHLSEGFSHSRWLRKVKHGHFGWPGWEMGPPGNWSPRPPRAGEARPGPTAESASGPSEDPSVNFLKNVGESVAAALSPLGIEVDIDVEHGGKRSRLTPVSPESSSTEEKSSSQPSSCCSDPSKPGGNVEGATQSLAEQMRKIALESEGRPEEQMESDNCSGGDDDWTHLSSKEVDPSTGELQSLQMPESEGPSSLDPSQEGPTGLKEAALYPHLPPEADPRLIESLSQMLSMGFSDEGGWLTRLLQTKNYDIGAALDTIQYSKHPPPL
T2 sequence (P17661 whole entry L385P): as the sequence (P17661 whole entry) above, with L385P counted along it
Chain of tauP301L (P10636 1-441 isoform P10636-8 P301L): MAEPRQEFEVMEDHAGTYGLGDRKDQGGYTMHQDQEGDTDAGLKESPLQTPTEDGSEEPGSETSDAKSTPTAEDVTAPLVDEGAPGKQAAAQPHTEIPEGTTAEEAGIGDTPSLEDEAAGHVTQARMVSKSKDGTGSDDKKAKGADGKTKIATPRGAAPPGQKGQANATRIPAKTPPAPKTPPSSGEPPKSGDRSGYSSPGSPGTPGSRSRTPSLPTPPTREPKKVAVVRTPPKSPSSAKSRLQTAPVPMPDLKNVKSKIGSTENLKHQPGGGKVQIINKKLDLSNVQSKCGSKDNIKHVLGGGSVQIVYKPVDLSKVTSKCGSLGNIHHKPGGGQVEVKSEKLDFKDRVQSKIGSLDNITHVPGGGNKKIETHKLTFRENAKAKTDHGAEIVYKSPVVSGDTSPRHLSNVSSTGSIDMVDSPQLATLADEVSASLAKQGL

Regarding `O=C(CCCc1ccccc1)NCCOCCOCCOCCOCCOCCOCCOCCNCc1ccc(OCc2ccccc2)c(OCc2ccccc2)c1` [PBA-1105b], the “degradation of wild-type desmin” value at wild-type desmin is listed as “not wild-type desmin”. At mutant desminL385P, the “degradation of mutant desminL385P” value was “induced the degradation”. At tauP301L, the “degradation of tauP301L” value is “at a similar efficiency as the original PBA-1105”.
For the compound `OCCNCc1cccc(OCc2ccccc2)c1` [YTK-105], the “wound area, single experiment” value in test [1] (0h) was 1132236 and 1199923 and 1182736. For the same compound, the “wound area, Average %” value in test [1] (0h (reference = 100)) was 100%. Besides, the “wound area, Average” value in test [1] (0h, con 1278325) is reported as 1171632. Further, the “wound area, single experiment” value in test [1] (4h) is 859025 and 791115 and 860952. In addition, in [1] (4h, con 815372), the “wound area, Average” value is 837031. Moreover, the “wound area, Average %” value in test [1] (4h, relative to 0h, con 63.7844) stood at 71.4415%. Also, the “wound area, single experiment” value in test [1] (12h) was 450234 and 520420 and 504520. In addition, the “wound area, Average” value in test [1] (12h, con 627015) amounted to 491725. In [1] (12h, relative to 0h, con 49.0497), the “wound area, Average %” value was determined as 41.9692%. In test [1] (24h), the “wound area, single experiment” value is 288632 and 435340 and 335340. Besides, the “wound area, Average” value in [1] (24h, con 144265) is listed as 353104. Further, the “wound area, Average %” value in test [1] (24h, relative to 0h, con 11.2855) is 30.1378%. Also, in [2], the “LC3 puncta formation, AVG of cells of 50” value is 42.3333; the “LC3 puncta formation, percentage AVG” value amounted to 84.6667%; the “p62-LC3 colocalization, AVG of cells of 50” value was 45; the “p62-LC3 colocalization, percentage AVG” value was 90%. In [2], the “p62 puncta formation, AVG of cells of 50” value was determined as 43.6667 and the “p62 puncta formation, percentage AVG” value was determined as 87.3333%. Besides, in test [2] (single experiments), the “LC3 puncta formation, cells of 50 cells counted” value is 38 and 42 and 47; the “p62-LC3 colocalization, cells of 50 cells counted” value is 46 and 43; the “p62 puncta formation, cells of 50 cells counted” value is 43 and 41 and 47. In addition, the “binding of p62 in pulldown” value on p62 is listed as “bound”. In addition, the “MetAP2 normalized to control, AVG %” value in test [3] (2.5uM) was determined as 101.594%. In addition, the “MetAP2 normalized to control, AVG %” value in test [3] (10uM) was found to be 142.103%. In test [4], the “Normalized LC3 II/I A.F. index” value was found to be 11.2 and the “Normalized p62 A.F. index” value came to 4.6. Moreover, in test [5] (setting [6]), the “WIPI2-GFP-p62 colocalization, AVG of cells of 50” value was 25 and the “WIPI2-GFP-p62 colocalization, percentage AVG” value was 50%. Moreover, the “WIPI2-GFP-p62 colocalization, cells of 50 cells counted” value in [5] (HeLa expressing WIPI2-GFP, 2.5 μM, 6 h, single experiments) was 31 and 18 and 26. In [5] (setting [7]), the “WIPI2-p62 colocalization, AVG of cells of 50” value is 40.6667 and the “WIPI2-p62 colocalization, percentage AVG” value is on record as 81.3333%. Moreover, in test [5] (HeLa, endogenous WIPI2, 2.5 μM, 24 h, single experiments), the “WIPI2-p62 colocalization, cells of 50 cells counted” value is 48 and 33 and 41.
